Measurements as given in article PMC9317316, “Synthesis and Evaluation of Some New 4H-Pyran Derivatives as Antioxidant, Antibacterial and Anti-HCT-116 Cells of CRC, with Molecular Docking, Antiproliferative, Apoptotic and ADME Investigations” (Pharmaceuticals, 2022).
Several values for one entry are separate records, joined by “and”; a condition that tells them apart may be missing. Equal values may be shown once.

What was measured:
[1] = DPPH radical scavenging assay; settings: for IC50: 0.03 to 1 mg/mL, 1 h, mean ± SD, triplicate, read-out: IC50 (mM) for DPPH Scavenging Potency
Method in brief: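 Ethanolic DPPH mixed with samples at 0.03 to 1 mg/mL, kept 1 h at room temperature in darkness, then absorbance read at 519 nm against compound-free control. Scavenging percentage computed as (1 − Acompound/Acontrol) × 100; IC50 interpolated from scavenging-versus-concentration plot.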

CDK2/CyclinA2 enzyme = molecular target: T1, CDK2/CyclinA2 enzyme (Homo sapiens, UniProt P24941); test: In vitro CDK2 inhibitory assay (Kinase-Glo); assay type: biochemical; settings: for IC50: deduced from curves over 0.01-10 µM, read-out: IC50 against CDK2
T1 construct: purchased BPS Biosciences, San Diego, CA, USA 79599
Experimental: To further substantiate the promising results of the docking analyses of pyrans 4d and 4K in the ATP active site of CDK2, their in vitro potencies to inhibit the enzyme activity were evaluated over a concentration range of 0.01−10 µM.
CDK-2 inhibition activity of the studied compounds 4d and 4k was evaluated using a commercial CDK2 […] (cat. no.: 79599; BPS Biosciences, San Diego, CA, USA) following the manufacturer’s instructions. Briefly, different concentrations of each compound or the positive control BMS-265246 (0.01, 0. 1, 1 or 10 µM) were incubated with 20 µL of diluted CDK2/CyclinA2 enzyme at 30 °C for 45 min. Following the addition of 50 µL Kinase-Glo® Reagent to each well, the plate was incubated at room temperature for 15 min. Then, the luminescence signal was measured using the microplate reader. The CDK2 inhibitory activity was expressed as inhibition percentage, which was determined by comparison with a control experiment for comparative purposes. IC50 values were deduced from the curves. All measurements were performed in triplicate.

[2] = system: caspase-3 gene in HCT-116 cells; test: qRT-PCR expression profile of the caspase-3 gene in HCT-116 cells; assay type: cell-based, human; set-up: dose or concentration left out as unconfirmed; settings: 24 h, as compared to the negative control
Text: Normally, apoptosis, or programmed cell death, is considered as a safeguard mechanism for managing stress and maintaining tissue homeostasis. It proceeds through a series of well-ordered biochemical cascades of events, which are regulated by a network of proteins. However, due to genetic and epigenetic mutations, deregulation of these proteins occurs, which results in evasion of apoptosis. This oncogenic transformation is a hallmark of human cancer, and it contributes to other tumorigenic events, including uncontrolled growth, accumulation of further genetic mutations, tumor angiogenesis and metastasis and chemotherapeutic resistance. Therefore, reinitiating selective cancer cell death is a fundamental goal in anticancer drug development. Research in cancer biology has provided fundamental insights into the apoptotic pathways and their deregulation in colon cancer. Moreover, it has identified the molecular targets for reinitiating selective tumor cell death, including antiapoptotic Bcl-2 family proteins, apoptosis inhibitors and activators of the TRAIL death receptor signaling pathway, as well as other apoptotic markers, such as caspases. Among the caspases, which play critical roles in apoptosis, are the initiators, including caspases-8 or 9, and the effectors, including caspase-3 and caspase-7. […] Thus, the real-time quantitative PCR analyses of caspase-3-gene levels following treatment with compounds 4d and 4K at a concentration […] for 24 h, were performed to investigate their potential as proapoptotic agents. […]
Total RNA was extracted from each cell culture flask using the RNeasy extraction kit (RNeasy micro kit, cat. no. 74004). […] The amount of extracted RNA was quantified by estimating the absorbance at 260 nm. The purity of the RNA was checked by measuring the ratio of the absorbance at 260 and 280 nm, where a ratio ranging from 1.8 to 2.0 was taken to be pure. […]
Quantitative real-time PCR was carried out with the Thermal Cycler Rotorgene Real-Time System II (Rotorgene, South Korea) with the SYBR kit. […]

For `COc1cc(C2C(C#N)=C(N)OC(C)=C2C(=O)OCc2ccccc2)cc(OC)c1OC` (stereo not shown) [4d, 6-Amino-5-cyano-2-methyl-4-(3,4,5-trimethoxy-phenyl)-4H-pyran-3-carboxylic acid benzyl ester], the IC50 [1] was 0.504 ± 0.032 mM, the “DPPH Radical Scavenging Effenciency (%) at 1 mg/mL” value [1] was 65.25% and 65.25 ± 1.77% and the “decrease of CDK2 activity” value (CDK2/CyclinA2 enzyme; at 0.01 µM) was 26.9%. The “decrease of CDK2 activity” value (CDK2/CyclinA2 enzyme; at 0.1 µM) was 41.5%, the “decrease of CDK2 activity” value (CDK2/CyclinA2 enzyme; at 1 µM) was 72.5% and the “decrease of CDK2 activity” value (CDK2/CyclinA2 enzyme; at 10 µM) was 89%. For the same compound, the IC50 (CDK2/CyclinA2 enzyme) was 143 nM and the “caspase-3 gene transcription level, fold increase” value [2] was 2.55 fold.

For `CC1=C(C(=O)OCc2ccccc2)C(c2ccc(C#N)cc2)C(C#N)=C(N)O1` (stereo not shown) [4k, 6-Amino-5-cyano-4-(4-cyano-phenyl)-2-methyl-4H-pyran-3-carboxylic acid benzyl ester], the IC50 [1] was 1.05 ± 0.075 mM, the “DPPH Radical Scavenging Effenciency (%) at 1 mg/mL” value [1] was 40.55 ± 2.19% and the “decrease of CDK2 activity” value (CDK2/CyclinA2 enzyme; at 0.01 µM) was 21.9%. The “decrease of CDK2 activity” value (CDK2/CyclinA2 enzyme; at 0.1 µM) was 42.4%, the “decrease of CDK2 activity” value (CDK2/CyclinA2 enzyme; at 1 µM) was 66.3% and the “decrease of CDK2 activity” value (CDK2/CyclinA2 enzyme; at 10 µM) was 83.6%. The IC50 (CDK2/CyclinA2 enzyme) was 214 nM and the “caspase-3 gene transcription level, fold increase” value [2] was 4.62 fold.
